What was measured:
Format in all cases: cell-based, human
[1] = test system: HCT116 cells; experiment: Boyden chamber transwell migration assay; conditions: for cell migration rate, mean %: 1 μM daily for 3 days
Method: HCT116, SW620, LS174T, SW480 and DLD-1 cells were used in cell migration and invasion analysis performed with Boyden chamber assay. 400 μL containing 2.5×10^5 cells were seeded into each transwell chamber with filter membranes of 12.0 μm pore size (Millipore, Schwalbach, Germany). For invasion filter membranes were coated with 50 μL Matrigel (diluted 1:3 in RPMI-1640; BD Biosciences) 10 minutes before cells were seeded. Fresh medium (600 μL) were added to the bottom chamber and cells were allowed to attach to the insets for 15 hours. […] Afterwards insets were removed and cells that had migrated through the membrane to the lower chamber were trypsinized and counted in a Neubauer chamber (LO-Laboroptik, Bad Homburg, Germany). Each well was counted ten times. Each migration or invasion experiment was performed in duplicate. The average number of migrated or invaded cells was determined for at least three independent experiments.
(A) Chemical structure of niclosamide and its derivatives. In 2D illustrations the niclosamide structure was compared with the structure of niclosamide derivatives; marked in solid circles or boxes are added chemical groups, marked in grey and surrounded by dotted lines are removed chemical groups. In 3D illustrations grey clouds represent van der Waals surface, red and blue indicate negative and positive charges, respectively. (B) S100A4 expression under treated conditions. HCT116 cells were treated with 1 μM niclosamide or one of the niclosamide derivatives for 24 hours. S100A4 expression was analyzed by qRT-PCR and immunoblot. (C) Cell migration under treated conditions. HCT116 cells were treated with 1 μM niclosamide or one of its derivatives for 24 hours and cell migration was determined by Boyden chambder assay. Cells migrated to the lower chamber were counted and normalized to the number of migrated, solvent-treated HCT116 cells. Comparison of niclosamide or derivative-treated vs. solvent-treated cells was performed by two-sided one-way analysis of variance and Bonferroni post hoc multiple comparison test. Data is given as mean±SE at least four independent experiments each performed in duplicates.
For WNT pathway analysis the following cells were applied: HCT116 cells (heterozygous for gain-of-function-mutated CTNNB1; wt/mut), HAB-68mut cells (deletion mutant of HCT116, expressing only gain-of-function-mutated CTNNB1: −/mut) and HAB-92 wt cells (deletion mutant of HCT116, expressing only wild-type CTNNB1: wt/−). (A) CTNNB1 genotype dependent effect of niclosamide on LEF/TCF transcription factor reporter gene expression. Cells were treated with 1 μM niclosamide for 24 hours. Reporter gene expression was determined by luciferase activity measurement. For each condition and cell line TOPflash expression was normalized to FOPflash expression. (B) CTNNB1 genotype dependent effect of niclosamide on S100A4 expression. Cells were treated with 1 μM niclosamide for 24 hours. S100A4 expression was analyzed by qRT-PCR and immunoblot. (C) CTNNB1 genotype dependent effect of niclosamide on migration rates. Cells were treated with 1 μM niclosamide for 24 hours and cell migration was determined by Boyden chamber assay. Data represents mean±SE of at least three independent experiments. Differences were analyzed by Student's t test (n.s.; not statistically significant). (D) Nuclear localization of CTNNB1 under niclosamide treatment. Nuclear extracts of HCT116 cells treated with the indicated concentrations of niclosamide for 18 hours were analyzed by immunoblot. (E) Effect of niclosamide on CTNNB1/TCF complex. Nuclear extracts of HCT116 cells treated with the indicated concentrations of niclosamide for 18 hours were analyzed by EMSA for the TCF-binding site of the S100A4 promoter. Supershift was performed by addition of a monoclonal anti-CTNNB1 antibody. (F) Presence of CTNNB1 on the S100A4 promoter under niclosamide treatment. HCT116 cells were treated with 1 μM niclosamide for 18 hours and processed for ChIP assay. […]

[2] = test system: HCT116-S100A4 cells; experiment: Wound healing assay (directed migration); conditions: 1 μM daily, 4 days
Method: (§1) For wound healing assay HCT116, SW620, LS174T, SW480 and DLD-1 cells were grown to form 60% confluent monolayers of cells in which a wound of about 300 μm width was inflicted with a sterile pipette tip. The medium was exchanged to remove non-adherent cells and the wounded monolayer was treated with 1 μM niclosamide or the respective amount of DMSO every 24 hours for 4 consecutive days. The progress of wound closure was monitored with microphotographs of 10× magnification taken with the Leica DM IL light microscope (Leica Microsystems) on day 0 and day 4. The wound healing experiment was performed three independent times.
(§2) (A) Cell migration of HCT116-vector and HCT116-S100A4 cells exposed to niclosamide treatment. Cells were treated with 1 μM niclosamide for 24 hours and migration rates were measured with Boyden chamber assay. […] Cells were treated with 1 μM niclosamide for 24 hours and cell invasion was determined by Boyden chamber assay. (C) Directed migration of HCT116-vector and HCT116-S100A4 cells exposed to niclosamide treatment analyzed by wound healing assay. […] Cells were treated daily with 1 μM niclosamide and cell viability was determined with MTT assay. […] (F) Quantification of colonies formed. Number of colonies (of more than 4 cells) was counted and normalized to solvent-treated HCT116-vector cells. […]

[3] = test system: HCT116-vector cells; experiment: Wound healing assay (directed migration); conditions: 1 μM daily, 4 days
Method: as §1, §2

## O=C(Nc1ccc([N+](=O)[O-])cc1Cl)c1cc(Cl)ccc1O [niclosamide, 2′,5-dichloro-4′-nitrosalicylanilide]
[1]; 24 hours post-treatment, control 100.0%
  cell migration rate, mean %: 18.7%
[1]; 48 hours post-treatment, control 100.0%
  cell migration rate, mean %: 12.2%
[1]; 72 hours post-treatment, control 108.8%
  cell migration rate, mean %: 10.4%
[1]; 1 μM, 24 h (relative scale)
  migration rate, mean difference control vs niclosamide: 0.54
[1]; 1 μM, 24 h, control 1.00
  migration rate, mean (relative to HCT116 control): 0.45
[1]; 24 hours post-treatment
  migration, mean difference control vs niclosamide: 81.3%
[1]; 48 hours post-treatment
  migration, mean difference control vs niclosamide: 87.8%
[1]; 72 hours post-treatment
  migration, mean difference control vs niclosamide: 98.4%
[2]
  wound closure: able to migrate into the wound and close the gap
[3]
  wound closure: impaired

Reference: patent US11331290B2, “Niclosamide for the treatment of cancer metastasis” (Max-Delbrück-Centrum für Molekulare Medizin in der …, priority 2011, dated 2022)
